# Test results as given in patent publication US8895743B2, “Methysergide derivatives” (Map Pharmaceuticals, Inc., priority 2012, dated 2014).
# Tests used:
# [1] = target: T1, Dopamine D2L (Homo sapiens, UniProt P14416); test: GTPγ[35S] assay, dopamine D2L; assay type: biochemical
# T1 construct: expressed in transfected cells; host or cells: CHO-K1 (membrane extracts)
# Method: (§1) Receptor agonist/[…] assays were performed using 2-CF3-sergide. Table 1 summarizes the cell lines (CHO-K1/HEK293 transfected with relevant human receptor) and the assays performed to detect any agonist or antagonist activity.
# (§2) GTPγS studies were conducted to monitor agonist activity for 8′OH-2CF3-dihydroergotamine (8′OH-2CF3-DHE) against the receptors indicated in Table 1 above. Reagents used were the following: Assay buffer (20 mM HEPES, pH 7.4; 100 mM NaCl; 10 μg/mL saponin; 30 mM MgCl2); Membranes (recombinant human receptor membrane extracts were thawed on ice and diluted in assay buffer to give 1000 μg/mL ([…]) and kept on ice); GDP (diluted in assay buffer to give 30 μM solution (3 μM final concentration); beads (PVT-WGA (Amersham, RPNQ001), diluted in assay buffer at 25 mg/mL (0.25 mg/10 μL)); GTPγ^35S (Perkin Elmer, NEG030X), diluted in assay buffer to give 0.1 nM (final concentration); and ligand (agonist/antagonist diluted in assay buffer).
# (§3) Membranes were mixed with GDP (1:1) and incubated for at least 15 minutes on ice. In parallel GTPγ^35S was mixed with the beads (1:1) just before starting the reaction. […] The plates were then centrifuged for 10 minutes at 2000 rpm and incubated at room temperature for 1 hour and counted for 1 min/well with a Perkin Elmer TopCount reader.
# [2] = tested on: Orexin (OX1/OX2); test: Aequorin assays, orexin receptors; assay type: cell-based; details: CHO-AEQ, human receptors
# Method: as §1
# (§4) Aequorin assays were conducted to monitor activity for 8′OH-2CF3-dihydroergotamine (8′OH-2CF3-DHE) against the receptors indicated in Table 1 above (except for mGlu3 and mGlu5). CHO-K1 cells coexpressing mitochondrial apoaequorin and the recombinant human receptor of interest were grown to mid-log phase in culture media without antibiotics and then detached with PBS-EDTA, centrifuged and resuspended in assay buffer (DMEM/HAM's F12 with HEPES, without phenol red+0.1% BSA, protease free) at a concentration of 1×10^6 cell/mL. […]
# (§5) 50 μL of the cell suspension was mixed with 50 μL of test or reference agonist in a 96-well plate. The resulting emission of light was recorded using Hamamatsu Functional Drug Screening System 6000 (FDSS 6000) luminometer. […]
# (§6) To standardize the emission of recorded light (and determine of the “100% signal”) across plates and across different experiments, some wells contained 100 μM digitonin or a saturating concentration of ATP (20 μM).
# [3] = target: T2, Serotonin 5-HT1B (Homo sapiens, UniProt P28222); test: GTPγ[35S] assay, serotonin 5-HT1B; assay type: biochemical; details: CHO-K1 human receptor membranes, agonist mode; read-out: Activity (Agonism: EC50), 5-HT1B
# T2 construct: expressed in transfected cells; host or cells: CHO-K1 (membrane extracts)
# Method: as §1, §2, §3
# [4] = tested on: Somatostatin (SST1~SSTS); test: GTPγ[35S] assays, somatostatin receptors; assay type: biochemical; details: CHO-K1 human receptor membranes
# Method: as §1, §2, §3
# [5] = target: T3, Adrenergic α2C (Homo sapiens, UniProt P18825); test: GTPγ[35S] assay, adrenergic α2C; assay type: biochemical; details: CHO-K1 human receptor membranes, antagonist mode; read-out: Activity (Antagonism: IC50), Adrenergic a2C
# T3 construct: expressed in transfected cells; host or cells: CHO-K1 (membrane extracts)
# Method: as §1, §2, §3
# [6] = target: T4, Adrenergic α2B (Homo sapiens, UniProt P18089); test: GTPγ[35S] assay, adrenergic α2B; assay type: biochemical; details: CHO-K1 human receptor membranes, antagonist mode; read-out: Activity (Antagonism: IC50), Adrenergic a2B
# T4 construct: expressed in transfected cells; host or cells: CHO-K1 (membrane extracts)
# Method: as §1, §2, §3
# [7] = target: T5, Adrenergic α1A (Homo sapiens, UniProt P35348); test: Aequorin agonist/antagonist assay, adrenergic α1A; assay type: cell-based; details: CHO-K1 mAeq, human receptor, antagonist mode; read-out: Activity (Antagonism: IC50), Adrenergic a1A
# T5 construct: expressed in transfected cells; host or cells: CHO-K1 mAeq
# Method: as §1, §4, §5, §6
# [8] = target: T6, mGlu7 (Homo sapiens, UniProt Q14831); test: cAMP HTRF assay, mGluR7; assay type: cell-based; details: CHO-K1, human receptor, agonist mode; read-out: Activity (Agonism: EC50), mGlu7
# T6 construct: expressed in transfected cells; host or cells: CHO-K1
# Method: as §1
# (§7) cAMP HTRF (Gs) studies were conducted to monitor activity for 8′OH-2CF3-dihydroergotamine (8′OH-2CF3-DHE) against the receptors indicated in Table 1 above. […] Lysis buffer was added and after a 1 hour incubation, cAMP concentrations was determined according to the manufacturer specification with the HTRF kit. […] Lysis buffer was added and after a 1 hour incubation, cAMP concentrations were determined according to the manufacturer specification, with the HTRF kit.
# (§8) cAMP HTRF (Gi) studies were conducted to monitor activity for 8′OH-2CF3-dihydroergotamine (8′OH-2CF3-DHE) against the receptors indicated in Table 1 above. […] Lysis buffer was added and after a 1 hour incubation, cAMP concentrations was determined according to the manufacturer specification with the HTRF kit. […] Lysis buffer was added and after a 1 hour incubation, cAMP concentrations were determined according to the manufacturer specification, with the HTRF kit.
# [9] = target: T7, Dopamine D4 (Homo sapiens, UniProt P21917); test: GTPγ[35S] assay, dopamine D4; assay type: biochemical
# T7 construct: expressed in transfected cells; host or cells: CHO-K1 (membrane extracts)
# Method: as §1, §2, §3
# [10] = target: T8, Adrenergic α1D (Homo sapiens, UniProt P25100); test: Aequorin agonist/antagonist assay, adrenergic α1D; assay type: cell-based; details: CHO-K1 mAeq, human receptor, antagonist mode; read-out: Activity (Antagonism: IC50), Adrenergic a1D
# T8 construct: expressed in transfected cells; host or cells: CHO-K1 mAeq
# Method: as §1, §4, §5, §6
# [11] = target: T9, Adrenergic α2A (Homo sapiens, UniProt P08913); test: GTPγ[35S] assay, adrenergic α2A; assay type: biochemical; details: CHO-K1 human receptor membranes, antagonist mode; read-out: Activity (Antagonism: IC50), Adrenergic a2A
# T9 construct: expressed in transfected cells; host or cells: CHO-K1 (membrane extracts)
# Method: as §1, §2, §3
# [12] = target: T10, Serotonin 5-HT3 (Homo sapiens, UniProt P46098); test: Aequorin assay, serotonin 5-HT3; assay type: cell-based; details: HEK-293 mAeq, human receptor, antagonist mode; read-out: Activity (Antagonism: IC50), 5-HT3
# T10 construct: expressed in transfected cells; host or cells: HEK-293 mAeq
# Method: as §1, §4, §5, §6
# [13] = tested on: Calcitonin (AM1/AM2); test: cAMP HTRF assays, calcitonin AM1/AM2 receptors; assay type: cell-based; details: CHO-K1, human receptors
# Method: as §1, §7, §8
# [14] = tested on: Neurokinin (NK1/NK2/NK3); test: Aequorin assays, neurokinin receptors; assay type: cell-based; details: CHO-AEQ, human receptors, antagonist mode; cell names OP2; read-out: Activity (Antagonism: IC50), OP2, in row Neurokinin (NK1/NK2/NK3)
# Method: as §1, §4, §5, §6
# [15] = target: T11, Serotonin 5-HT1D (Homo sapiens, UniProt P28221); test: GTPγ[35S] assay, serotonin 5-HT1D; assay type: biochemical; details: CHO-K1 human receptor membranes, agonist mode; read-out: Activity (Agonism: EC50), 5-HT1D
# T11 construct: expressed in transfected cells; host or cells: CHO-K1 (membrane extracts)
# Method: as §1, §2, §3
# [16] = tested on: Cholecystokinin (CCK1/CCK2); test: Aequorin assays, cholecystokinin receptors; assay type: cell-based; details: CHO-AEQ, human receptors
# Method: as §1, §4, §5, §6
# [17] = target: T12, Adenosine A2a (Homo sapiens, UniProt P29274); test: cAMP HTRF assay, adenosine A2a; assay type: cell-based; details: HEK293, human receptor
# T12 construct: expressed in transfected cells
# Method: as §1, §7, §8
# [18] = tested on: Opioid (OP1/OP2/OP3); test: GTPγ[35S] assays, opioid receptors; assay type: biochemical; details: CHO-K1 human receptor membranes
# Method: as §1, §2, §3
# [19] = target: T13, Adrenergic α1B (Homo sapiens, UniProt P35368); test: Aequorin agonist/antagonist assay, adrenergic α1B; assay type: cell-based; details: CHO-K1 mAeq, human receptor, antagonist mode; read-out: Activity (Antagonism: IC50), Adrenergic a1B
# T13 construct: expressed in transfected cells; host or cells: CHO-K1 mAeq
# Method: as §1, §4, §5, §6
# [20] = target: T14, Serotonin 5-HT1A (Homo sapiens, UniProt P08908); test: GTPγ[35S] assay, serotonin 5-HT1A; assay type: biochemical
# T14 construct: expressed in transfected cells; host or cells: CHO-K1 (membrane extracts)
# Method: as §1, §2, §3
# [21] = target: T15, Serotonin 5-HT2B (Homo sapiens, UniProt P41595); test: Aequorin assay, serotonin 5-HT2B; assay type: cell-based
# T15 construct: expressed in transfected cells; host or cells: CHO-K1 mAeq Gα16
# Method: as §1, §4, §5, §6
# [22] = target: T16, Serotonin 5-HT2A (Homo sapiens, UniProt P28223); test: Aequorin assay, serotonin 5-HT2A; assay type: cell-based; details: CHO-K1 mAeq Gα16, human receptor, agonist mode; read-out: Activity (Agonism: EC50), 5-HT2A
# T16 construct: expressed in transfected cells; host or cells: CHO-K1 mAeq Gα16
# Method: as §1, §4, §5, §6
# [23] = target: T17, Dopamine D1 (Homo sapiens, UniProt P21728); test: cAMP HTRF assay, dopamine D1; assay type: cell-based; details: CHO-K1, human receptor, agonist mode; read-out: Activity (Agonism: EC50), D1
# T17 construct: expressed in transfected cells; host or cells: CHO-K1
# Method: as §1, §7, §8
# [24] = target: T18, Serotonin 5-HT1F (Homo sapiens, UniProt P30939); test: cAMP HTRF assay, serotonin 5-HT1F; assay type: cell-based; details: CHO-K1, human receptor, agonist mode; read-out: Activity (Agonism: EC50), 5-HT1F
# T18 construct: expressed in transfected cells; host or cells: CHO-K1
# Method: as §1, §7, §8
# [25] = target: T19, Dopamine D3 (Homo sapiens, UniProt P35462); test: GTPγ[35S] assay, dopamine D3; assay type: biochemical
# T19 construct: expressed in transfected cells; host or cells: CHO-K1 (membrane extracts)
# Method: as §1, §2, §3
# [26] = target: T20, Calcitonin (CGRP) (Homo sapiens, UniProt O60894+Q16602); test: Aequorin assay, CGRP receptor; assay type: cell-based; details: CHO-AEQ
# T20 construct: expressed in transfected cells; host or cells: CHO-AEQ
# Method: as §1, §4, §5, §6
# [27] = tested on: VIP/PACAP (PAC1/VPAC/VPAC2); test: Aequorin assays, VIP/PACAP receptors; assay type: cell-based; details: CHO-AEQ, human receptors
# Method: as §1, §4, §5, §6
# T7 sequence (P21917 whole entry): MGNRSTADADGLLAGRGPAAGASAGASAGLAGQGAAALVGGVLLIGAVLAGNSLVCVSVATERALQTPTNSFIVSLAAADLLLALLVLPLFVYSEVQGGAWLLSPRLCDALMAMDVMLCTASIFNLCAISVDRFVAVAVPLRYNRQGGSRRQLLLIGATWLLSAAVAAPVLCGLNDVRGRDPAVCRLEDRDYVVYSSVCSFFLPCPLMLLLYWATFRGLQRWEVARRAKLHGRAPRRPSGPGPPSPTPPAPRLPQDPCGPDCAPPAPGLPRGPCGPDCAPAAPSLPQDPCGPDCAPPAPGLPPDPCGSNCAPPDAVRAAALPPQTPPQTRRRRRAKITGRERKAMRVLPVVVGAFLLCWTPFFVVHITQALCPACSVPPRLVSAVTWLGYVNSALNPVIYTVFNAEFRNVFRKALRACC
# T15 sequence (P41595 whole entry): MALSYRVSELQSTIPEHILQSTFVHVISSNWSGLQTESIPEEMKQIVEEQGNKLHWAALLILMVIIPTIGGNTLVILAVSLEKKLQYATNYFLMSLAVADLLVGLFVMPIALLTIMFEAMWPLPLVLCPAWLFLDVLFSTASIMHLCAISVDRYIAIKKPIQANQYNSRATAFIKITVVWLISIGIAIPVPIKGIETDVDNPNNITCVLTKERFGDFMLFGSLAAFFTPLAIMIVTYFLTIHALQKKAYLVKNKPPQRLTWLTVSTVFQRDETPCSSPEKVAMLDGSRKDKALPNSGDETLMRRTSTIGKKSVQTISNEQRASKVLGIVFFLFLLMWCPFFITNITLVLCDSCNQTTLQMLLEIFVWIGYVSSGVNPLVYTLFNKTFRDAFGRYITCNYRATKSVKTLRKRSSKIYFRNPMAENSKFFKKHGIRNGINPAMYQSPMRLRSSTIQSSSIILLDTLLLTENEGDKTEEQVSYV
# T1 sequence (P14416 whole entry): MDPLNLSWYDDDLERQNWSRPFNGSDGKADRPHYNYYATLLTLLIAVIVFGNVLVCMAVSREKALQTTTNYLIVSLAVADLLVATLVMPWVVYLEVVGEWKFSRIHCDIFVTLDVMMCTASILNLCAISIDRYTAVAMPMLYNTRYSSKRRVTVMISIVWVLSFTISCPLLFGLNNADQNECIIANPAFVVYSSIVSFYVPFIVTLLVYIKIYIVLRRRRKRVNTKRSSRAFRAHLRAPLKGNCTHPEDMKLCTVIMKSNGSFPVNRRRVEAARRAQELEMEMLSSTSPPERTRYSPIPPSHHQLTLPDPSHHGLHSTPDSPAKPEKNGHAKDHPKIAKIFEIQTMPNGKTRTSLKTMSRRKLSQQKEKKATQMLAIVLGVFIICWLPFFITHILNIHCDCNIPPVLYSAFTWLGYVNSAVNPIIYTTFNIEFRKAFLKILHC
# T14 sequence (P08908 whole entry): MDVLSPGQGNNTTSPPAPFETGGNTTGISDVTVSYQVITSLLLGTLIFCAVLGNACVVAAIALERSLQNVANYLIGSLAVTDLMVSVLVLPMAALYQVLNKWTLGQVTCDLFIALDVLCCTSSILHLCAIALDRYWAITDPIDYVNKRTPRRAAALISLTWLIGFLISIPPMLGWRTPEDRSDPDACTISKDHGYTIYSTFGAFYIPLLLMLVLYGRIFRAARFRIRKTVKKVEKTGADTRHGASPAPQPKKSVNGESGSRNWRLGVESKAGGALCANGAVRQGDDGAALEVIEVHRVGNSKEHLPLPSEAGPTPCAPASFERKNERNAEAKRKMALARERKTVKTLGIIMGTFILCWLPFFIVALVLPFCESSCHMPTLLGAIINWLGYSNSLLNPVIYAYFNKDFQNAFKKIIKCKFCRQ
# T19 sequence (P35462 whole entry): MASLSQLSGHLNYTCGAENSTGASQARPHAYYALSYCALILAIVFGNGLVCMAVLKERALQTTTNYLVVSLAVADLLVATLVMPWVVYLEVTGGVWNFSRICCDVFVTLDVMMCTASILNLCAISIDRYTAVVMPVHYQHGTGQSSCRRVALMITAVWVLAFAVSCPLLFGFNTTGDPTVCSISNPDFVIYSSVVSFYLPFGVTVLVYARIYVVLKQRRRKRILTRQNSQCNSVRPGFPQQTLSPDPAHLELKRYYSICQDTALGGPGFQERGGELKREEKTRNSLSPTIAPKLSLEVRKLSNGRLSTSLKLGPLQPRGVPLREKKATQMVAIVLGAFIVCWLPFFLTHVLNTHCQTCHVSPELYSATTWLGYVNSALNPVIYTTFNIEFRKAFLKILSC
# T20 sequence (Q16602 23-461): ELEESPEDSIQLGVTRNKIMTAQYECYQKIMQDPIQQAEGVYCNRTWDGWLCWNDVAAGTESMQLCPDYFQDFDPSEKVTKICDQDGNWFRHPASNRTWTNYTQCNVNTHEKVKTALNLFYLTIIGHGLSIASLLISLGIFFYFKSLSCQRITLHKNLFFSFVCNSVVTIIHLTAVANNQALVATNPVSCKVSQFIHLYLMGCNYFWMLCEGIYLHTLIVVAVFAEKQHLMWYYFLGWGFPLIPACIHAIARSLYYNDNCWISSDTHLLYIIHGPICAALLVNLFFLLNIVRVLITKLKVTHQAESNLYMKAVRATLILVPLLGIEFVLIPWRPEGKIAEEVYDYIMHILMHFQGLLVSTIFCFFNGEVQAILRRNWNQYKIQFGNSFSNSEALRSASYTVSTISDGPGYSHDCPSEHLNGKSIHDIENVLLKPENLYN
# T20 sequence (O60894 27-148 partner): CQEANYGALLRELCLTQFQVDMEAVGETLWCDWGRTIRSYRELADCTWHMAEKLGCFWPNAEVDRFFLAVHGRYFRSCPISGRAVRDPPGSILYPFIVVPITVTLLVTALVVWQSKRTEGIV
# T11 sequence (P28221 whole entry): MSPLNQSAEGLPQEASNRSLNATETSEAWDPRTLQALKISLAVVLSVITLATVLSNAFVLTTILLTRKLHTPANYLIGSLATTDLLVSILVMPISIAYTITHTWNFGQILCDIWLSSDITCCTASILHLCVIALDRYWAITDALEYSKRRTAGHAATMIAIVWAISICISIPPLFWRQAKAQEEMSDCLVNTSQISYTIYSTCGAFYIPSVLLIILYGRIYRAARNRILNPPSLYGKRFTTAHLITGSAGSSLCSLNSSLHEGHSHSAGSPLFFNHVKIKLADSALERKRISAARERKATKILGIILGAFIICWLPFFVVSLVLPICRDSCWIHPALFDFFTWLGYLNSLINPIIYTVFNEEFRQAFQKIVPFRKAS
# T4 sequence (P18089 whole entry): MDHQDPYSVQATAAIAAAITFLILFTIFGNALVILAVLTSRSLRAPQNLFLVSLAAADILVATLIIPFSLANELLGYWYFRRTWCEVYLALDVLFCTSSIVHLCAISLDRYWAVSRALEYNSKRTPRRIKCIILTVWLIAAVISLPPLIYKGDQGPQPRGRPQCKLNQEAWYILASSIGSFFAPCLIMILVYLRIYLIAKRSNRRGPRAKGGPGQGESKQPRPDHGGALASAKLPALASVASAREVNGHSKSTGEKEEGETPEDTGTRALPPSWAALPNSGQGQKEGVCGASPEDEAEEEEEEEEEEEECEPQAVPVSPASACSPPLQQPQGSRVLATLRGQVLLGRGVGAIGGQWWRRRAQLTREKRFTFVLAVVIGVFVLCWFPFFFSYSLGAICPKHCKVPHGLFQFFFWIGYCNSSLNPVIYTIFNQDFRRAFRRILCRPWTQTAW
# T3 sequence (P18825 whole entry): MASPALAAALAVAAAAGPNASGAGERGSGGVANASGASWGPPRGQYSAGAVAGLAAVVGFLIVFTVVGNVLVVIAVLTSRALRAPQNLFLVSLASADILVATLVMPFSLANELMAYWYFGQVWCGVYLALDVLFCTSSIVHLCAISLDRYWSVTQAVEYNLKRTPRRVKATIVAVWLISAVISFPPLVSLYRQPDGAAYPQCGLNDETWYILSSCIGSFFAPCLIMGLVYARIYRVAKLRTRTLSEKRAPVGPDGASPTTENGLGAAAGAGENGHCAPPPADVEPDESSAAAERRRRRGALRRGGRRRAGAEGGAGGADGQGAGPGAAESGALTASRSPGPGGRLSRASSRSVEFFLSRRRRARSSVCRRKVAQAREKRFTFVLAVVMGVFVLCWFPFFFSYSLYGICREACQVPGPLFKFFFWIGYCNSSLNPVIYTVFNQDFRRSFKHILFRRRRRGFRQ
# T6 sequence (Q14831 35-915): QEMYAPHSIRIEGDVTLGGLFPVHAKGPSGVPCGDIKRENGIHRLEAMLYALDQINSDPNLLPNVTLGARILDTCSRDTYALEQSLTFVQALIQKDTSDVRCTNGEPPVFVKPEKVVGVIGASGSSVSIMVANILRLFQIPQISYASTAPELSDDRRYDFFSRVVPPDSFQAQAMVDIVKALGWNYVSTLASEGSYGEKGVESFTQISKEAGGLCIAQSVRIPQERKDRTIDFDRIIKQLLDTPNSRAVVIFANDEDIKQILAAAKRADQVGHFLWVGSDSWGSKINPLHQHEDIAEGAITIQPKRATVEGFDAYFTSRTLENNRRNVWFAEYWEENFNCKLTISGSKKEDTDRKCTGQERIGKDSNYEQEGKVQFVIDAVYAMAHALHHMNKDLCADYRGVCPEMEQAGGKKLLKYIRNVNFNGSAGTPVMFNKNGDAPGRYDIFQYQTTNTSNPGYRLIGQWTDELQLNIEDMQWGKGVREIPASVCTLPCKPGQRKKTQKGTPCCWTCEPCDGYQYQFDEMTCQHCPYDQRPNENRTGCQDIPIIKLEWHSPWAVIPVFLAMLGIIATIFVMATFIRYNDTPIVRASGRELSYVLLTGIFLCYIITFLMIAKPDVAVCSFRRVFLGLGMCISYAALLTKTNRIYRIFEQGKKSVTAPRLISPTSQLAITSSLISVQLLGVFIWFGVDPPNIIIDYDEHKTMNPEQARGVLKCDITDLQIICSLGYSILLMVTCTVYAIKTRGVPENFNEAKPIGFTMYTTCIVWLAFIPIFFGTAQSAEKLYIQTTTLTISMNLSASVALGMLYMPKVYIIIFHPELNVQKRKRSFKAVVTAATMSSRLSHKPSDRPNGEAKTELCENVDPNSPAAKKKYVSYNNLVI
compound,measurement,setting,value
CC[C@@H](CO)NC(=O)[C@@H]1C=C2c3cccc4[nH]c(C(F)(F)F)c(c34)C[C@H]2N(C)C1 [2-CF3-sergide],IC50,"[1]; CHO-K1 human receptor membranes, antagonist mode, read-out: Activity (Antagonism: IC50), D2L",> 1000 nM
same,Receptor activity at the D2L dopaminergic receptor (in words),[1]; summary of Table 2,receptor antagonism
same,"Activity (Agonism: EC50; Antagonism: IC50), Orexin (OX1/OX2)",[2],Inactive
same,EC50,[3],128 nM
same,"Activity (Agonism: EC50; Antagonism: IC50), Somatostatin (SST1~SSTS)",[4],Inactive
same,IC50,[5],> 10000 nM
same,IC50,[6],> 1000 nM
same,IC50,[7],> 10000 nM
same,EC50,[8],46.5 nM
same,IC50,"[9]; CHO-K1 human receptor membranes, antagonist mode, read-out: Activity (Antagonism: IC50), D4",> 1000 nM
same,Receptor activity at the D4 dopaminergic receptor (in words),[9]; summary of Table 2,receptor antagonism
same,IC50,[10],38 nM
same,IC50,[11],> 10000 nM
same,IC50,[12],> 1000 nM
same,"Activity (Agonism: EC50; Antagonism: IC50), Calcitonin (AM1/AM2)",[13],Inactive
same,IC50,[14],> 1000 nM
same,EC50,[15],98 nM
same,"Activity (Agonism: EC50; Antagonism: IC50), Cholecystokinin (CCK1/CCK2)",[16],Inactive
same,"Activity (Agonism: EC50; Antagonism: IC50), Adenosine A2a",[17],Inactive
same,"Activity (Agonism: EC50; Antagonism: IC50), Opioid (OP1/OP2/OP3)",[18],Inactive
same,IC50,[19],> 1000 nM
same,EC50,"[20]; CHO-K1 human receptor membranes, agonist mode, read-out: Activity (Agonism: EC50), 5-HT1A",258 nM
same,Receptor activity on the 5-HT1A receptor (in words),[20]; summary of Table 2,agonistic activity
same,IC50,"[21]; CHO-K1 mAeq Gα16, human receptor, antagonist mode, read-out: Activity (Antagonism: IC50), 5-HT2B",42 nM
same,Receptor activity at the 5-HT2B receptor (in words),[21]; summary of Table 2,full receptor antagonism
same,EC50,[22],1100 nM
same,EC50,[23],257 nM
same,EC50,[24],254 nM
same,IC50,"[25]; CHO-K1 human receptor membranes, antagonist mode, read-out: Activity (Antagonism: IC50), D3",> 1000 nM
same,Receptor activity at the D3 dopaminergic receptor (in words),[25]; summary of Table 2,receptor antagonism
same,"Activity (Agonism: EC50; Antagonism: IC50), Calcitonin (CGRP)",[26],Inactive
same,"Activity (Agonism: EC50; Antagonism: IC50), VIP/PACAP (PAC1/VPAC/VPAC2)",[27],Inactive
